Data set [1] has as its system leaves of transformed tobacco. Kind of data set: Metabolism of 10001 in excised tobacco leaves (Example 20). The settings on record: plants transformed with pSSU-SU111 and pCab-SU131, 21 hours. It counts as in vitro ADME, Nicotiana tabacum. The protocol:
Plants were grown from tobacco seed produced by self-pollinated transformed plants in Metro-Mix® 350 under 16 hour light (light intensity of 400 μEinsteins per second per square meter at pot level, 22° C. and 80% relative humidity) followed by 8 hours of dark (18° C. and 70 to 80% relative humidity) and watered three times daily with half strength Hoagland's solution. The presence of the cytochrome P450 protein in individual plants was confirmed by Western blot analysis before testing for sulfonylurea metabolism.
During growth, the tobacco plants produced leaves attached to the main stalk, none of which were of the same age or size. […]
Individual leaves were extracted with 30 ml acetone/water (80%/20% by volume) for 1 minute in a Sorvall® Omni-Mixer. […] 10015 and its metabolites were detected at 254 nm while ^14 C-10001 and its metabolites were detected with a Radiomatic Flo-One® detector. A diode array detector was used in separate experiments to obtain the absorbance spectra of the 10015 metabolite and an 10014 standard in the HPLC analysis of several extracts (HPLC method is described in Romesser et al., Biochem. Biophys. Res. Comm., 140:650-659 (1986)). Comparison of the metabolite absorbance spectrum with that of the 10014 confirmed the metabolite's identity. […]

For data set [2], the system named is S. ambofaciens PH3818. Kind of data set: Metabolism of 10001 by strains transformed with pCS325 (Example 15). It counts as in vitro ADME, Streptomyces ambofaciens. The settings on record: substrate 10001. The protocol: S. griseolus PH2003, S. griseus PH4001, S. ambofaciens PH4002, and S. lividans JI1326 were transformed with the plasmid pPAT108. The transformed S. griseolus strain, PH3826, was cultured for 24 hours in 150 mls of sporulation broth with 5 ug/ml thiostrepton. The transformed S. griseus strain, PH3832, and the transformed S. ambofaciens strain, PH3834, were cultured for 24 hours in 150 mls of trypticase soy broth with 5 ug/ml thiostrepton. The transformed S. lividans strain, PH3822, was similarly cultured in 150 mls of YEME broth with 5 ug/ml thiostrepton. Three hours before harvesting the cells, 50 mls of fresh medium of the same type with 5 ug/ml thiostrepton was added to each culture. The cells from each of the cultures were harvested by centrifugation, washed twice with 50 mMMOPS, pH7.2 and resuspended in five cell volumes of MOPS containing 0.2% glucose and 120 ug/ml of the sulfonylurea 10001. The cell suspensions were incubated at 30° C. with shaking and aliquots were removed at 0.5, 1, 2 and 4 hours. The supernatant of each aliquot was analyzed by HPLC and the concentration of the sulfonylurea compound 10001 and its metabolites 10002 and 10003 were determined.
S. griseolus PH2003, S. griseus PH4001, S. ambofaciens PH4002, and S. lividans JI1326 were transformed with the plasmid pCS325. Cells of the transformed strains of S. griseolus PH3809, S. griseus PH3817, S. ambofaciens PH3818, and S. lividans PH3816, were grown and treated as described in Example 14, and the concentrations of the sulfonylurea compound 10001 and its metabolites 10002 and 10003 were determined.

The test system of data set [3] is S. ambofaciens PH4002. Nature of the data set: Metabolism of 10001 by untransformed strain (Example 14). It counts as in vitro ADME, Streptomyces ambofaciens. The settings on record: substrate 10001 120 ug/ml.
Data set [4] has as its system S. lividans pCAO200SU1#12. Nature of the data set: Sulfonylurea metabolism by washed cell suspension (Examples 6-9). The class given is in vitro ADME, Streptomyces lividans.

In the case of `CCOC(=O)c1ccccc1S(=O)(=O)NC(=O)Nc1nc(Cl)cc(OC)n1` [compound 10001, N-[(4-chloro-6-methoxy-pyrimidin-2-yl)aminocarbonyl]-2-ethoxycarbonylbenzenesulfonamide], the “extent of metabolism versus leaf tissue of pAGS112 plants” value in data set [1] is “metabolized to a significantly greater extent”. In addition, the concentration in supernatant in data set [2] (0.5 h) came out at 286 µM; in data set [2] (1.0 h) it was 265 µM; in data set [2] (2.0 h), 210 µM; in data set [2] (4.0 h) it was 129 µM; in data set [3] (1.0 h), 406 µM; in data set [3] (4.0 h), 412 µM. The concentration in supernatant in data set [4] (substrate 10001, 4 h) turned out to be 276 µM; in data set [4] (substrate 10001, 6 h) it was 276 µM.

As to `CCOC(=O)c1ccccc1S(=O)(=O)NC(=O)Nc1nc(O)cc(Cl)n1` [compound 10002, N-[(4-chloro-6-hydroxy-pyrimidin-2-yl)aminocarbonyl]-2-ethoxycarbonylbenzenesulfonamide], in data set [1] (substrate 10001), the “metabolite production versus leaf tissue of pAGS112 plants” value was “more 10002 was produced”. Besides, the concentration in supernatant came out at 2 µM in data set [4] (substrate 10001, 2 h); 4 µM in data set [4] (substrate 10001, 4 h); 6 µM in data set [4] (substrate 10001, 6 h).

Consider `COc1cc(Cl)nc(NC(=O)NS(=O)(=O)c2ccccc2C(=O)O)n1` [compound 10003, N-[(4-chloro-6-methoxy-pyrimidin-2-yol)aminocarbonyl]-2-carboxybenzenesulfonamide], for which the concentration in supernatant in data set [2] (0.5 h) came to 1 µM; in data set [2] (1.0 h) it was 3 µM; in data set [2] (2.0 h), 7 µM; in data set [2] (4.0 h), 13 µM; in data set [3] (1.0 h), 0 µM; in data set [3] (4.0 h), 0 µM. Besides, the concentration in supernatant in data set [4] (substrate 10001, 2 h) was determined as 2 µM; in data set [4] (substrate 10001, 4 h), 4 µM; in data set [4] (substrate 10001, 6 h), 5 µM.

For `COC(=O)c1ccccc1S(=O)(=O)NC(=O)Nc1nc(C)cc(C)n1` [compound 10010, N-[(4,6-dimethylpyrimidin-2-yl)aminocarbonyl]-2-methoxycarbonylbenzenesulfonamide], the concentration in supernatant worked out at 90 µM in data set [4] (substrate 10010, 2 h); 85 µM in data set [4] (substrate 10010, 4 h); 80 µM in data set [4] (substrate 10010, 6 h).
